Laboratory results reported in patent publication US20160108027A1, “SUBSTITUTED BENZOXAZOLES” (BAYER PHARMA AKTIENGESELLSCHAFT, priority 2013, published 2016).

Key:
[1] = target: T1, thrombin (Homo sapiens, UniProt P00734); test: Determination of the thrombin-inhibitory activity in plasma samples (ecarin-activated); type: biochemical; conditions: citrate plasma, ecarin activation, fluorogenic thrombin substrate; in some cases means of individual determinations
Procedure: To determine the inhibition of thrombin in plasma samples, plasma […] is activated by ecarin. Thrombin activity and/or its inhibition by potential inhibitors is/are then measured fluorenscently by addition of a substrate.
The substances to be tested are dissolved in various concentrations in dimethyl sulphoxide and diluted with water. In white 96-well flat-bottomed plates, 20 μl of substance dilution are mixed with 20 μl of ecarin solution (ecarin reagent, from Sigma E-0504, final concentration 20 mU per reaction) in Ca buffer (200 mM Hepes+560 mM sodium chloride+10 mM calcium chloride+0.4% PEG) or with 20 μl of Ca buffer (as unstimulated control). Furthermore, 20 μl of fluorogenic thrombin substrate (from Bachem 1-1120, final concentration 50 μmol/1) and 20 μl of citrate plasma (from Octapharma) are added, and the mixture is homogenized well. The plate is measured in a SpectraFluorplus Reader using a 360 nm excitation filter and a 465 nm emission filter every minute over 20 minutes. […] Representative activity data from this test are given in Table 2 below (in some cases as means of individual determinations): […]

[2] = target: T1, thrombin; test: Measurement of the thrombin inhibition in buffer; type: biochemical; conditions: human thrombin 0.06 nmol/l in Tris buffer pH 7.4, 22° C., substrate Boc-Asp(OBzl)-Pro-Arg-AMC; in some cases means of individual determinations
Procedure: To determine the thrombin inhibition of the substances listed above, a biochemical test system is constructed in which the conversion of a thrombin substrate is used for determining the enzymatic activity of human thrombin. Here, thrombin cleaves aminomethylcoumarin, which is measured fluorescently, from the peptic substrate. The determinations are carried out in microtitre plates.
Substances to be tested are dissolved in various concentrations in dimethyl sulphoxide and incubated for 15 min with human thrombin (0.06 nmol/l dissolved in 50 mmol/l of Tris buffer [C,C,C-tris(hydroxymethyl)aminomethane], 100 mmol/l of sodium chloride, 0.1% BSA [bovine serum albumin], pH 7.4) at 22° C. The substrate (5 μmol/l Boc-Asp(OBzl)-Pro-Arg-AMC from Bachem) is then added. After 30 min of incubation, the sample is excited at a wavelength of 360 nm and the emission is measured at 460 nm. The measured emissions of the test mixtures with test substance are compared to the control mixtures without test substance (only dimethyl sulphoxide instead of test substance in dimethyl sulphoxide) and IC50 values are calculated from the concentration/activity relationships. Representative activity data from this test are given in Table 1 below (in some cases as means of individual determinations): […]

| IC50 [1] | IC50 [2] | Compound |
| --- | --- | --- |
| 0.013 µM | 0.0068 µM | COc1cc(C(=O)N2CC(C)(C)OCC2C(C)O)cc2nc(NCc3cc(Cl)ccn3)oc12 (single isomer, unassigned) [Example 95, (2-{[(4-Chloropyridin-2-yl)methyl]amino}-7-methoxy-1,3-benzoxazol-5-yl) [5-(1-hydroxyethyl)-2,2-dimethylmorpholin-4-yl]methanone] |
| 0.0089 µM | 0.0044 µM | COc1cc(C(=O)N2C[C@H](OC3CC3)C[C@H]2CO)cc2nc(NCc3cc(Cl)ccn3)oc12 [Example 12, (2-{[(4-Chloropyridin-2-yl)methyl]amino}-7-methoxy-1,3-benzoxazol-5-yl)[(2S,4R)-4-(cyclopropyloxy)-2-(hydroxymethyl)pyrrolidin-1-yl]methanone] |
| 0.013 µM | 0.0097 µM | [2H]C([2H])(C)O[C@@H]1CC(CC#N)N(C(=O)c2cc(OC)c3oc(NCc4cc(Cl)ccn4)nc3c2)C1 (single isomer, unassigned) [Example 9] |
| 0.05 µM | 0.051 µM | CCC1C(=O)N2CCC2CN1C(=O)c1cc(OC)c2oc(NCc3cc(Cl)ccn3)nc2c1 (centres unmarked) [Example 73, 4-[(2-{[(4-Chloropyridin-2-yl)methyl]amino}-7-methoxy-1,3-benzoxazol-5-yl)carbonyl]-3-ethyl-1,4-diazabicyclo[4.2.0]octan-2-one] |
| 0.036 µM | 0.019 µM | COc1cc(C(=O)N2CC3(CC3)NC(=O)C2C)cc2nc(NCc3cc(Cl)ccn3)oc12 (racemic) [Example 76, 7-[(2-{[(4-Chloropyridin-2-yl)methyl]amino}-7-methoxy-1,3-benzoxazol-5-yl)carbonyl]-6-methyl-4,7-diazaspiro[2.5]octan-5-one] |
| 0.0088 µM | 0.0019 µM | CC[C@@H]1COC(C)(CCO)CN1C(=O)c1cc(OC)c2oc(NCc3cc(Cl)ccn3)nc2c1 (single isomer, unassigned) [Example 29] |
| 0.017 µM | 0.018 µM | COc1cc(C(=O)N2CC(C)(C)OCC2CF)cc2nc(NCc3cc(Cl)ccn3)oc12 (single isomer, unassigned) [Example 43, (2-{[(4-Chloropyridin-2-yl)methyl]amino}-7-methoxy-1,3-benzoxazol-5-yl) [5-(fluoromethyl)-2,2-dimethylmorpholin-4-yl]methanone] |
| 0.094 µM | 0.028 µM | COc1cc(C(=O)N2CC(C)CCC2C2(O)CC2)cc2nc(NCc3cc(Cl)ccn3)oc12 (single isomer, unassigned) [Example 90, (2-{[(4-Chloropyridin-2-yl)methyl]amino}-7-methoxy-1,3-benzoxazol-5-yl) [2-(1-hydroxycyclopropyl)-5-methylpiperidin-1-yl]methanone] |
| 0.05 µM | 0.05 µM | COCC1COC(C)(C)CN1C(=O)c1cc(OC)c2oc(NCc3cc(Cl)ccn3)nc2c1 (racemic) [Example 41, (2-{[(4-Chloropyridin-2-yl)methyl]amino}-7-methoxy-1,3-benzoxazol-5-yl) [5-(methoxymethyl)-2,2-dimethylmorpholin-4-yl]methanone] |
| 0.038 µM | 0.016 µM | COc1cc(C(=O)N2CC(C)OCC2CC(C)O)cc2nc(NCc3cc(Cl)ccn3)oc12 (single isomer, unassigned) [Example 67, (2-{[(4-Chloropyridin-2-yl)methyl]amino}-7-methoxy-1,3-benzoxazol-5-yl) [5-(2-hydroxypropyl)-2-methylmorpholin-4-yl]methanone] |
| – | 0.028 µM | COc1cc(C(=O)N2CC(C)OCC2CC(C)O)cc2nc(NCc3cc(Cl)ccn3)oc12 (single isomer, unassigned) [Example 66, (2-{[(4-Chloropyridin-2-yl)methyl]amino}-7-methoxy-1,3-benzoxazol-5-yl) [5-(2-hydroxypropyl)-2-methylmorpholin-4-yl]methanone] |
| 0.019 µM | 0.0062 µM | CCO[C@@H]1CC(CO)N(C(=O)c2cc(OC)c3oc(NCc4cc(Cl)ccn4)nc3c2)C1 (single isomer, unassigned) [Example 2] |
| 0.027 µM | 0.0053 µM | COc1cc(C(=O)N2CC(C)CCC2CC2(O)CC2)cc2nc(NCc3cc(Cl)ccn3)oc12 (centres unmarked) [Example 87, (2-{[(4-Chloropyridin-2-yl)methyl]amino}-7-methoxy-1,3-benzoxazol-5-yl){2-[(1-hydroxycyclopropyl)methyl]-5-methylpiperidin-1-yl}methanone] |
| 0.017 µM | 0.0032 µM | CC[C@@H]1COC(C)(CCO)CN1C(=O)c1cc(OC)c2oc(NCc3cc(Cl)ccn3)nc2c1 (some centres unmarked) [Example 28] |
| 0.061 µM | 0.024 µM | COc1cc(C(=O)N2CC(C)(C)OCC2CC(C)O)cc2nc(NCc3cc(Cl)ccn3)oc12 (single isomer, unassigned) [Example 65, (2-{[(4-Chloropyridin-2-yl)methyl]amino}-7-methoxy-1,3-benzoxazol-5-yl) [5-(2-hydroxypropyl)-2,2-dimethylmorpholin-4-yl]methanone] |
| – | 2.6 µM | [2H]C([2H])(C)O[C@@H]1CC(CO)N(C(=O)c2cc(OC)c3oc(NC(C)c4cc(Cl)ccn4)nc3c2)C1 (single isomer, unassigned) [Example 8] |
| – | 0.17 µM | COc1cc(C(=O)N2CC(C)(C)NC(=O)C2CC(N)=O)cc2nc(NCc3cc(Cl)ccn3)oc12 (racemic) [Example 82, 2-{1-[(2-{[(4-Chloropyridin-2-yl)methyl]amino}-7-methoxy-1,3-benzoxazol-5-yl)carbonyl]-5,5-dimethyl-3-oxopiperazin-2-yl}acetamide] |
| – | 0.55 µM | COc1cc(C(=O)N2C[C@H](OC3CC3)C[C@H]2CO)cc2nc(NC(C)c3cc(Cl)ccn3)oc12 (single isomer, unassigned) [Example 14] |
| – | 0.097 µM | COc1cc(C(=O)N2CC(C)OCC2CCO)cc2nc(NCc3cc(Cl)ccn3)oc12 (single isomer, unassigned) [Example 71, (2-{[(4-Chloropyridin-2-yl)methyl]amino}-7-methoxy-1,3-benzoxazol-5-yl) [5-(2-hydroxyethyl)-2-methylmorpholin-4-yl]methanone] |
| – | 0.33 µM | CCO[C@@H]1CC(CO)N(C(=O)c2cc(OC)c3oc(NCc4cc(Cl)ccn4)nc3c2)C1 (single isomer, unassigned) [Example 3] |
| – | 0.032 µM | COc1cc(C(=O)N2CC(C)OCC2(C)C)cc2nc(NCc3cc(Cl)ccn3)oc12 (racemic) [Example 44, (2-{[(4-Chloropyridin-2-yl)methyl]amino}-7-methoxy-1,3-benzoxazol-5-yl)(2,5,5-trimethylmorpholin-4-yl)methanone] |
| – | 2.8 µM | CCO[C@@H]1CC(CO)N(C(=O)c2cc(OC)c3oc(NC(C)c4cc(Cl)ccn4)nc3c2)C1 (single isomer, unassigned) [Example 5] |
| – | 0.044 µM | COc1cc(C(=O)N2CC(C)(C)OCC2CC(C)O)cc2nc(NCc3cc(Cl)ccn3)oc12 (single isomer, unassigned) [Example 64, (2-{[(4-Chloropyridin-2-yl)methyl]amino}-7-methoxy-1,3-benzoxazol-5-yl) [5-(2-hydroxypropyl)-2,2-dimethylmorpholin-4-yl]methanone] |
| – | 0.0066 µM | COc1cc(C(=O)N2CC(C)CCC2CC2(O)CC2)cc2nc(NCc3cc(Cl)ccn3)oc12 (single isomer, unassigned) [Example 88, (2-{[(4-Chloropyridin-2-yl)methyl]amino}-7-methoxy-1,3-benzoxazol-5-yl){2-[(1-hydroxycyclopropyl)methyl]-5-methylpiperidin-1-yl}methanone] |
